For eight compounds, IC50 and inhibition results are on record in ChEMBL document CHEMBL2157943, “Role of the side chain stereochemistry in the α-glucosidase inhibitory activity of kotalanol, a potent natural α-glucosidase inhibitor. Part 2” (Bioorg Med Chem, 2012).

One may read the IC50 as the point on the concentration scale where inhibition reaches its midpoint. Broadly, the inhibition is the change of the read-out against control, counted positive when it falls.

Test [1] concerns the target T1, Sucrase-isomaltase, intestinal (Rattus norvegicus, UniProt P23739). In words: Inhibition of rat small intestinal isomaltase after 30 mins by glucose-oxidase method.
Test [2] concerns the target T1, Sucrase-isomaltase, intestinal. Nature of the test: Inhibition of rat small intestinal sucrase after 30 mins by glucose-oxidase method.
The target of test [3] is Lysosomal alpha-glucosidase (Rattus norvegicus) (UniProt Q6P7A9). The conditions noted are these: 100 ug/ml.
Description: Inhibition of rat small intestinal maltase at 100 ug/ml after 30 mins by glucose-oxidase method
Test [4] deals with Sucrase-isomaltase, intestinal (Rattus norvegicus) (UniProt P23739). Conditions: 100 ug/ml.
Description: Inhibition of rat small intestinal sucrase at 100 ug/ml after 30 mins by glucose-oxidase method

SMILES strings stand for the structures.

Sucrase-isomaltase, intestinal (Rattus norvegicus), sequence (P23739 1-1013 limits assumed): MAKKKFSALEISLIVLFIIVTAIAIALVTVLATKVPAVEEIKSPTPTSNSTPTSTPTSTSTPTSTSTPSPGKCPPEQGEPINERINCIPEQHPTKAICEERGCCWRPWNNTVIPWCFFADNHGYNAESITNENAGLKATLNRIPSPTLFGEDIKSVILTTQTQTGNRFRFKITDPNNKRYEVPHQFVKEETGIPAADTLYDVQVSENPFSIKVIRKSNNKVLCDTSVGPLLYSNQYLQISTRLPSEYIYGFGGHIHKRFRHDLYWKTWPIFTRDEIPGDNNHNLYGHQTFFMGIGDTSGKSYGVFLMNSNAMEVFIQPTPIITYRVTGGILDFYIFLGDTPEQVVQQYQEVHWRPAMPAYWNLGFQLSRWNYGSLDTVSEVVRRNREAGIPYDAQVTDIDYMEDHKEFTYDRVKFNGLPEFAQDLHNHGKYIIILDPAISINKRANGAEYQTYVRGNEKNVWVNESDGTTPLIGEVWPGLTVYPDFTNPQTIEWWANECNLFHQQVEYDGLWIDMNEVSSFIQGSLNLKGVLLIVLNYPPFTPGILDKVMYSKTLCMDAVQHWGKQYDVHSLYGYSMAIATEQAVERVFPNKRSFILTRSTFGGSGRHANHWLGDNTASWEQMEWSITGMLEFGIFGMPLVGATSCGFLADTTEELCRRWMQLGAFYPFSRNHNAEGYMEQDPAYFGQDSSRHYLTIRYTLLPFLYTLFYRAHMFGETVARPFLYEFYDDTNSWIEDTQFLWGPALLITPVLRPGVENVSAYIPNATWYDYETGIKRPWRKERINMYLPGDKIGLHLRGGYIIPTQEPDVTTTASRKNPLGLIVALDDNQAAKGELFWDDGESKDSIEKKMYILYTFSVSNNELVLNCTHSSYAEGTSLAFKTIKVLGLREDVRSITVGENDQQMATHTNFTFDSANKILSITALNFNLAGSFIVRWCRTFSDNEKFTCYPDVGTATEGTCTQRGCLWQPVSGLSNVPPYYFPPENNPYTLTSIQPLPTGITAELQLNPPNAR
Sucrase-isomaltase, intestinal (Rattus norvegicus), sequence (P23739 1014-1841 limits assumed): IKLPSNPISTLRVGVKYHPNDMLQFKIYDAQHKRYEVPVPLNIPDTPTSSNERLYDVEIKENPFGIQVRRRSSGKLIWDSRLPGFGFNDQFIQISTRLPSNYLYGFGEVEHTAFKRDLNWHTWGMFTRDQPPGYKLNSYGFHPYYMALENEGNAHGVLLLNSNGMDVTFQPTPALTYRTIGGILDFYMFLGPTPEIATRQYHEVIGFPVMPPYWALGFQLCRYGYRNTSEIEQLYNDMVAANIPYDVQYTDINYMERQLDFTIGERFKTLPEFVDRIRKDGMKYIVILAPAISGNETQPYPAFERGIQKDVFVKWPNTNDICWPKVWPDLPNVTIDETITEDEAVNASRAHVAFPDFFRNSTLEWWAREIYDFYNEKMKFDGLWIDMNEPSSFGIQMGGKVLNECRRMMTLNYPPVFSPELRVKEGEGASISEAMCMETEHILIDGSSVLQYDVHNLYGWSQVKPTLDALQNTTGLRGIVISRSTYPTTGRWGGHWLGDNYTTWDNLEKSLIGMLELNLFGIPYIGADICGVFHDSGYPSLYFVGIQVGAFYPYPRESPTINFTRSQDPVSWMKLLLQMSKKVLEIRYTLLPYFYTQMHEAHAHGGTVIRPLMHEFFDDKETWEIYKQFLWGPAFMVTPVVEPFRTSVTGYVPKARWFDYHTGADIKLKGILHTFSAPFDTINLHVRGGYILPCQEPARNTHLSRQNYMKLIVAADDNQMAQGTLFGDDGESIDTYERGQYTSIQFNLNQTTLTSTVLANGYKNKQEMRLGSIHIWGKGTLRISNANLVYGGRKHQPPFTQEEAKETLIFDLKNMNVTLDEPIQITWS
T1 sequence (P23739 1-1013 limits assumed): as the sequence (P23739 1-1013 limits assumed) above
T1 sequence (P23739 1014-1841 limits assumed): as the sequence (P23739 1014-1841 limits assumed) above
Lysosomal alpha-glucosidase (Rattus norvegicus), sequence (Q6P7A9 whole entry): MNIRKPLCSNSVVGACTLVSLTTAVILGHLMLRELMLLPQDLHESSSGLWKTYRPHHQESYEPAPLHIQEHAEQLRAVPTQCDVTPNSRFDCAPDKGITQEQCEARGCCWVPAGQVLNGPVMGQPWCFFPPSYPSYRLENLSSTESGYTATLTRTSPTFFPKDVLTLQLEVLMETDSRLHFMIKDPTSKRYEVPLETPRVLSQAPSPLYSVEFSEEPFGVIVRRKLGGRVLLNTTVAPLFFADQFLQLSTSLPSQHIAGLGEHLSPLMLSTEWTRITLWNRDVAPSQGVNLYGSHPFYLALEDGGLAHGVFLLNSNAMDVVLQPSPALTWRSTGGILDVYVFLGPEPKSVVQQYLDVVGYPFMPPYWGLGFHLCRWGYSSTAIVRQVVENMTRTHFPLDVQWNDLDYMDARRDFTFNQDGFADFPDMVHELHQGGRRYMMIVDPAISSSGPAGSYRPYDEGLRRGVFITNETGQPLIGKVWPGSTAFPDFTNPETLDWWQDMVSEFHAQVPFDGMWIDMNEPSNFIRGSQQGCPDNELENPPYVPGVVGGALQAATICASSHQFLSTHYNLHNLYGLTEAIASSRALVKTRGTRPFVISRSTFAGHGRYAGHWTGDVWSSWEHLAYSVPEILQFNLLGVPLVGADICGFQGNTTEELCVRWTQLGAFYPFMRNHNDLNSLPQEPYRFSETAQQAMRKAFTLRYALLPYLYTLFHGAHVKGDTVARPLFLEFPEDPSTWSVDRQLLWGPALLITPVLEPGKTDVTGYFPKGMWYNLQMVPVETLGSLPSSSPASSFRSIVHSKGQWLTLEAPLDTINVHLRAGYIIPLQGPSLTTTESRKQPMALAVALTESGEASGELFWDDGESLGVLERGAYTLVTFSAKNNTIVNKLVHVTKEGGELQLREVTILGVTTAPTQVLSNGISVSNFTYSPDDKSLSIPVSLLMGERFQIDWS

On to `O=S(=O)([O-])O[C@@H]([C@@H](O)[C@@H](O)[C@@H](O)CO)[C@H](O)C[S@+]1C[C@@H](O)[C@H](O)[C@H]1CO`, for which the half-inhibitory concentration (IC50) in test [1] amounted to 6.5 µM; in test [2], 32 µM.

As for `O=S(=O)([O-])O[C@@H]([C@@H](O)[C@H](O)[C@@H](O)CO)[C@H](O)C[S@+]1C[C@@H](O)[C@H](O)[C@H]1CO`, the half-maximal inhibitory concentration (IC50) in test [1] was 11 µM; in test [2] it was 136 µM. Further, the inhibition in test [3] was 42%.

For `O=S(=O)([O-])O[C@H]([C@@H](O)[C@@H](O)[C@@H](O)CO)[C@H](O)C[S@+]1C[C@@H](O)[C@H](O)[C@H]1CO`, the results for the IC50 in test [1] and in test [2] were 21 µM and over 236 µM, respectively. In addition, the inhibition in test [4] turned out to be 34%; in test [3], 45%.

On to `O=S(=O)([O-])O[C@H]([C@@H](O)[C@@H](O)[C@H](O)CO)[C@H](O)C[S@+]1C[C@@H](O)[C@H](O)[C@H]1CO` (mixture of isomers), for which the values for the 50% inhibitory concentration (IC50) in test [1] and in test [2] were 16 µM and over 236 µM, respectively. The figures for the inhibition in test [4] and in test [3] were 8% and 25%, respectively.

On to `O=S(=O)([O-])O[C@@H]([C@@H](O)[C@@H](O)[C@H](O)CO)[C@H](O)C[S@+]1C[C@@H](O)[C@H](O)[C@H]1CO`, for which the 50% inhibitory concentration (IC50) in test [1] is 1.6 µM; in test [2] it was 67 µM.

Turning to `O=S(=O)([O-])O[C@@H]([C@@H](O)[C@H](O)[C@H](O)CO)[C@H](O)C[S@+]1C[C@@H](O)[C@H](O)[C@H]1CO`, the figures for the IC50 in test [1] and in test [2] were 16 µM and 214 µM, respectively. For the same compound, the inhibition in test [3] stood at 44%.

Take `O=S(=O)([O-])O[C@H]([C@@H](O)[C@H](O)[C@H](O)CO)[C@H](O)C[S@+]1C[C@@H](O)[C@H](O)[C@H]1CO`: the results for the IC50 in test [1] and in test [2] were 58 µM and 55 µM, respectively.

In the case of `O=S(=O)([O-])O[C@H]([C@@H](O)[C@H](O)[C@@H](O)CO)[C@H](O)C[S@+]1C[C@@H](O)[C@H](O)[C@H]1CO`, the figures for the concentration for half-maximal inhibition (IC50) in test [1] and in test [2] were 20 µM and over 236 µM, respectively. The inhibition stood at 28% in test [4] and 32% in test [3].
